Columns and labels:
[1] = tested on: methane-grown methylotrophic microorganisms; experiment: Epoxidation by methane-grown cells of the strains of the invention; assay type: cell-based
Protocol: The pH of the nutrient medium was adjusted to 7.0 by the addition of acid or base and 50 ml samples of the nutrient medium were charged into a plurality of 300 ml shaker flasks. The shaker flasks were inoculated with an inoculating loop of cells from an agar plate containing homogeneous colonies of the microorganisms on the plate (the purity of the isolates was confirmed by microscopic examination. The isolates had been maintained on agar plates under an atmosphere of methane and air having a 1:1 v/v gas ratio which had been transferred evey two weeks. The gaseous phase of the inoculated flasks was then replaced with a gas mixture comprised of methane and air having a ratio of 1:1 on a v/v basis. The inoculated flasks were sealed air tight and were incubated on a rotary shaker of orbital radius 2.5 cm at 250 rpm and at 30° C. for two days until turbidity in the medium had developed.
The cells were harvested by centrifugation at 10,000×g. at 4° C. for 30 minutes. The cell pellet was washed twice with a 0.15 M phosphate buffer at a pH of 7.0 (containing 0.002 M MgCl2). […]
A 0.5 ml sample of each washed cell suspension (2 mg cells) was put into 10 ml vials at 4° C. which were sealed with a rubber cap. […] Samples of product (3 μl) were withdrawn periodically with a microsyringe and the products were analyzed by gas chromatography (ionization flame detector column). […]

[2] = target: T1, cell fractions of Methylosinus sp. (CRL-15, NRRL B-11,202) (Methylosinus trichosporium, UniProt Q50541+Q9KX50+Q9KX51); experiment: Oxidation by cell fractions P(40), P(80), S(80); assay type: biochemical; settings: P(40) particulate fraction; alkene to epoxide, alkane to alcohol; 30° C.
T1 sequence (Q9KX50 40-431): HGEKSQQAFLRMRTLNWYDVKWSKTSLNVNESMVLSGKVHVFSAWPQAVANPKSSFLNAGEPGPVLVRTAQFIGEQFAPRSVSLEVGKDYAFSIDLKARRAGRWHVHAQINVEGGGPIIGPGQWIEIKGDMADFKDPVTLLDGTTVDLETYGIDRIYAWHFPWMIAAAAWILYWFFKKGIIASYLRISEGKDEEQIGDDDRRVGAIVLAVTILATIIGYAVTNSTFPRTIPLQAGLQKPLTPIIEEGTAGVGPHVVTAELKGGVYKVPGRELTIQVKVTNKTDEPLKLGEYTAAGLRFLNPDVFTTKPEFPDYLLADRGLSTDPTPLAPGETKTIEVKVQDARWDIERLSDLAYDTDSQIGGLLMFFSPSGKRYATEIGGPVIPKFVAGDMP
T1 sequence (Q50541 1-252): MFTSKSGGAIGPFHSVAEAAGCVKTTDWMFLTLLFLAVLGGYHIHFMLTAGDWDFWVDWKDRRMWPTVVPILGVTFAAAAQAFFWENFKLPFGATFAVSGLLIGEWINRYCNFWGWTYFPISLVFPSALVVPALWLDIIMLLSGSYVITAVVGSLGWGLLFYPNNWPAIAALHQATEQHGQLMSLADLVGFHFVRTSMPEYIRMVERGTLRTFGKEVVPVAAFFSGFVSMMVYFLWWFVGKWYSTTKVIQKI
T1 sequence (Q9KX51 1-256): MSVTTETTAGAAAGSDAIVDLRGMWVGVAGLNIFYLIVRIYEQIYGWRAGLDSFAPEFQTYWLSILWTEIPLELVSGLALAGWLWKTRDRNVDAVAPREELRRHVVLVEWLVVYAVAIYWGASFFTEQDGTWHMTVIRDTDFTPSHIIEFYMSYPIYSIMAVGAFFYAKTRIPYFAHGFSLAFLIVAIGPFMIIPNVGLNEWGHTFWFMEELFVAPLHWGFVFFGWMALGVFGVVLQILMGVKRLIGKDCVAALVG
Protocol: Cells were washed twice with 25 mM potassium phosphate buffer, pH 7.0 containing 5 mM MgCl2. Cells were suspended in the same buffer. The cell suspensions at 4° C. were disintegrated by a single passage through a French Pressure cell (15,000 lb./in.^2) and centrifuged at 5000×g. for 15 min. to remove unbroken bacteria. The supernatant solution (crude extract) was then centrifuged at 40,000×g. for 30 min., yielding particulate P(40) and soluble S(40) fractions. The S(40) fraction was subsequently centrifuged at 80,000×g. for 60 min., yielding particulate P(80) and soluble S(80) fractions. The particulate fractions [P(40) and P(80)] were suspended in 25 mM potassium phosphate buffer, pH 7.0, containing 5 mM MgCl2 and homogenized at 4° C.
The oxidation of methane and propylene by particulate [(P)40 and (P)80] fractions and soluble [S(80)] fraction was measured at 30° C. by estimating the production of methanol and propylene oxide, respectively. The reaction mixtures contained in […]: 150 mM potassium phosphate buffer, pH 7.0 containing 5 mM MgCl2 b, 0.6 ml; 10μ moles NADH, and cellular fraction.
Reaction mixtures were contained in 10 ml vials at 4° C. Vials were sealed with rubber caps. The gaseous phase in the vials was removed using vacuum and then was replaced with a gas mixture of methane or propylene and oxygen at a 1:1, v/v ratio. Oxidation of other gaseous n-alkanes and n-alkanes was examined as described above. For liquid substrates, 10 μl of substrate was used directly.
The products of epoxidation of n-alkenes and hydroxylation of n-alkanes were assayed by flame ionization gas chromatography using a stainless steel column (12'×1/8") packed with 10% Carbowax 20 M on 80/100 Chromosorb W and Porapak Q column. The column temperature was maintained isothermally at 120° C. The carrier gas flow rate was 30 ml/min. of helium. The various products were identified by retention time comparisons and co-chromatography with authentic standards.
Specific activities were expressed as μ moles of products formed per hour per mg. protein. Concentrations of protein in various fractions were determined by the method of Lowry et al., J. Biol. Chem., 193: 265-275 (1951).

SMILES: C=CCCC [1-Pentene]
- epoxide product formation [1]: did not produce any detectable epoxide product
- Rate of Product Formation [2]: 0 μ moles/hr/mg of protein

Source: patent US4347319A, “Microbiological epoxidation process” (priority 1980, dated 1982)
